# Source: ChEMBL document CHEMBL1143439, “Open-chain half-bastadins mimic the effects of cyclic bastadins on calcium homeostasis in cultured neurons” (Bioorg Med Chem Lett, 2008)
# The source made the active and inactive calls. The calls are words filed in the database; no cut-off is given here.
# How the values were obtained:
# Rattus norvegicus [1] = species: Rattus norvegicus; assay: Activity at RYR2 receptor in rat cerebellar granule neurons assessed as increase in intracellular calcium level at 20 uM; type: cell-based
# Rattus norvegicus [2] = species: Rattus norvegicus; assay: Activity at RYR2 receptor in rat cerebellar granule neurons assessed activation of [45Ca2+] uptake at 20 uM after 10 mins
# Ryanodine receptor 1 = Ryanodine receptor 1 (Homo sapiens, UniProt P21817); assay: Binding affinity to RYR1 channels by calcium mobilization assay
# Ryanodine receptor 1, sequence (P21817 whole entry): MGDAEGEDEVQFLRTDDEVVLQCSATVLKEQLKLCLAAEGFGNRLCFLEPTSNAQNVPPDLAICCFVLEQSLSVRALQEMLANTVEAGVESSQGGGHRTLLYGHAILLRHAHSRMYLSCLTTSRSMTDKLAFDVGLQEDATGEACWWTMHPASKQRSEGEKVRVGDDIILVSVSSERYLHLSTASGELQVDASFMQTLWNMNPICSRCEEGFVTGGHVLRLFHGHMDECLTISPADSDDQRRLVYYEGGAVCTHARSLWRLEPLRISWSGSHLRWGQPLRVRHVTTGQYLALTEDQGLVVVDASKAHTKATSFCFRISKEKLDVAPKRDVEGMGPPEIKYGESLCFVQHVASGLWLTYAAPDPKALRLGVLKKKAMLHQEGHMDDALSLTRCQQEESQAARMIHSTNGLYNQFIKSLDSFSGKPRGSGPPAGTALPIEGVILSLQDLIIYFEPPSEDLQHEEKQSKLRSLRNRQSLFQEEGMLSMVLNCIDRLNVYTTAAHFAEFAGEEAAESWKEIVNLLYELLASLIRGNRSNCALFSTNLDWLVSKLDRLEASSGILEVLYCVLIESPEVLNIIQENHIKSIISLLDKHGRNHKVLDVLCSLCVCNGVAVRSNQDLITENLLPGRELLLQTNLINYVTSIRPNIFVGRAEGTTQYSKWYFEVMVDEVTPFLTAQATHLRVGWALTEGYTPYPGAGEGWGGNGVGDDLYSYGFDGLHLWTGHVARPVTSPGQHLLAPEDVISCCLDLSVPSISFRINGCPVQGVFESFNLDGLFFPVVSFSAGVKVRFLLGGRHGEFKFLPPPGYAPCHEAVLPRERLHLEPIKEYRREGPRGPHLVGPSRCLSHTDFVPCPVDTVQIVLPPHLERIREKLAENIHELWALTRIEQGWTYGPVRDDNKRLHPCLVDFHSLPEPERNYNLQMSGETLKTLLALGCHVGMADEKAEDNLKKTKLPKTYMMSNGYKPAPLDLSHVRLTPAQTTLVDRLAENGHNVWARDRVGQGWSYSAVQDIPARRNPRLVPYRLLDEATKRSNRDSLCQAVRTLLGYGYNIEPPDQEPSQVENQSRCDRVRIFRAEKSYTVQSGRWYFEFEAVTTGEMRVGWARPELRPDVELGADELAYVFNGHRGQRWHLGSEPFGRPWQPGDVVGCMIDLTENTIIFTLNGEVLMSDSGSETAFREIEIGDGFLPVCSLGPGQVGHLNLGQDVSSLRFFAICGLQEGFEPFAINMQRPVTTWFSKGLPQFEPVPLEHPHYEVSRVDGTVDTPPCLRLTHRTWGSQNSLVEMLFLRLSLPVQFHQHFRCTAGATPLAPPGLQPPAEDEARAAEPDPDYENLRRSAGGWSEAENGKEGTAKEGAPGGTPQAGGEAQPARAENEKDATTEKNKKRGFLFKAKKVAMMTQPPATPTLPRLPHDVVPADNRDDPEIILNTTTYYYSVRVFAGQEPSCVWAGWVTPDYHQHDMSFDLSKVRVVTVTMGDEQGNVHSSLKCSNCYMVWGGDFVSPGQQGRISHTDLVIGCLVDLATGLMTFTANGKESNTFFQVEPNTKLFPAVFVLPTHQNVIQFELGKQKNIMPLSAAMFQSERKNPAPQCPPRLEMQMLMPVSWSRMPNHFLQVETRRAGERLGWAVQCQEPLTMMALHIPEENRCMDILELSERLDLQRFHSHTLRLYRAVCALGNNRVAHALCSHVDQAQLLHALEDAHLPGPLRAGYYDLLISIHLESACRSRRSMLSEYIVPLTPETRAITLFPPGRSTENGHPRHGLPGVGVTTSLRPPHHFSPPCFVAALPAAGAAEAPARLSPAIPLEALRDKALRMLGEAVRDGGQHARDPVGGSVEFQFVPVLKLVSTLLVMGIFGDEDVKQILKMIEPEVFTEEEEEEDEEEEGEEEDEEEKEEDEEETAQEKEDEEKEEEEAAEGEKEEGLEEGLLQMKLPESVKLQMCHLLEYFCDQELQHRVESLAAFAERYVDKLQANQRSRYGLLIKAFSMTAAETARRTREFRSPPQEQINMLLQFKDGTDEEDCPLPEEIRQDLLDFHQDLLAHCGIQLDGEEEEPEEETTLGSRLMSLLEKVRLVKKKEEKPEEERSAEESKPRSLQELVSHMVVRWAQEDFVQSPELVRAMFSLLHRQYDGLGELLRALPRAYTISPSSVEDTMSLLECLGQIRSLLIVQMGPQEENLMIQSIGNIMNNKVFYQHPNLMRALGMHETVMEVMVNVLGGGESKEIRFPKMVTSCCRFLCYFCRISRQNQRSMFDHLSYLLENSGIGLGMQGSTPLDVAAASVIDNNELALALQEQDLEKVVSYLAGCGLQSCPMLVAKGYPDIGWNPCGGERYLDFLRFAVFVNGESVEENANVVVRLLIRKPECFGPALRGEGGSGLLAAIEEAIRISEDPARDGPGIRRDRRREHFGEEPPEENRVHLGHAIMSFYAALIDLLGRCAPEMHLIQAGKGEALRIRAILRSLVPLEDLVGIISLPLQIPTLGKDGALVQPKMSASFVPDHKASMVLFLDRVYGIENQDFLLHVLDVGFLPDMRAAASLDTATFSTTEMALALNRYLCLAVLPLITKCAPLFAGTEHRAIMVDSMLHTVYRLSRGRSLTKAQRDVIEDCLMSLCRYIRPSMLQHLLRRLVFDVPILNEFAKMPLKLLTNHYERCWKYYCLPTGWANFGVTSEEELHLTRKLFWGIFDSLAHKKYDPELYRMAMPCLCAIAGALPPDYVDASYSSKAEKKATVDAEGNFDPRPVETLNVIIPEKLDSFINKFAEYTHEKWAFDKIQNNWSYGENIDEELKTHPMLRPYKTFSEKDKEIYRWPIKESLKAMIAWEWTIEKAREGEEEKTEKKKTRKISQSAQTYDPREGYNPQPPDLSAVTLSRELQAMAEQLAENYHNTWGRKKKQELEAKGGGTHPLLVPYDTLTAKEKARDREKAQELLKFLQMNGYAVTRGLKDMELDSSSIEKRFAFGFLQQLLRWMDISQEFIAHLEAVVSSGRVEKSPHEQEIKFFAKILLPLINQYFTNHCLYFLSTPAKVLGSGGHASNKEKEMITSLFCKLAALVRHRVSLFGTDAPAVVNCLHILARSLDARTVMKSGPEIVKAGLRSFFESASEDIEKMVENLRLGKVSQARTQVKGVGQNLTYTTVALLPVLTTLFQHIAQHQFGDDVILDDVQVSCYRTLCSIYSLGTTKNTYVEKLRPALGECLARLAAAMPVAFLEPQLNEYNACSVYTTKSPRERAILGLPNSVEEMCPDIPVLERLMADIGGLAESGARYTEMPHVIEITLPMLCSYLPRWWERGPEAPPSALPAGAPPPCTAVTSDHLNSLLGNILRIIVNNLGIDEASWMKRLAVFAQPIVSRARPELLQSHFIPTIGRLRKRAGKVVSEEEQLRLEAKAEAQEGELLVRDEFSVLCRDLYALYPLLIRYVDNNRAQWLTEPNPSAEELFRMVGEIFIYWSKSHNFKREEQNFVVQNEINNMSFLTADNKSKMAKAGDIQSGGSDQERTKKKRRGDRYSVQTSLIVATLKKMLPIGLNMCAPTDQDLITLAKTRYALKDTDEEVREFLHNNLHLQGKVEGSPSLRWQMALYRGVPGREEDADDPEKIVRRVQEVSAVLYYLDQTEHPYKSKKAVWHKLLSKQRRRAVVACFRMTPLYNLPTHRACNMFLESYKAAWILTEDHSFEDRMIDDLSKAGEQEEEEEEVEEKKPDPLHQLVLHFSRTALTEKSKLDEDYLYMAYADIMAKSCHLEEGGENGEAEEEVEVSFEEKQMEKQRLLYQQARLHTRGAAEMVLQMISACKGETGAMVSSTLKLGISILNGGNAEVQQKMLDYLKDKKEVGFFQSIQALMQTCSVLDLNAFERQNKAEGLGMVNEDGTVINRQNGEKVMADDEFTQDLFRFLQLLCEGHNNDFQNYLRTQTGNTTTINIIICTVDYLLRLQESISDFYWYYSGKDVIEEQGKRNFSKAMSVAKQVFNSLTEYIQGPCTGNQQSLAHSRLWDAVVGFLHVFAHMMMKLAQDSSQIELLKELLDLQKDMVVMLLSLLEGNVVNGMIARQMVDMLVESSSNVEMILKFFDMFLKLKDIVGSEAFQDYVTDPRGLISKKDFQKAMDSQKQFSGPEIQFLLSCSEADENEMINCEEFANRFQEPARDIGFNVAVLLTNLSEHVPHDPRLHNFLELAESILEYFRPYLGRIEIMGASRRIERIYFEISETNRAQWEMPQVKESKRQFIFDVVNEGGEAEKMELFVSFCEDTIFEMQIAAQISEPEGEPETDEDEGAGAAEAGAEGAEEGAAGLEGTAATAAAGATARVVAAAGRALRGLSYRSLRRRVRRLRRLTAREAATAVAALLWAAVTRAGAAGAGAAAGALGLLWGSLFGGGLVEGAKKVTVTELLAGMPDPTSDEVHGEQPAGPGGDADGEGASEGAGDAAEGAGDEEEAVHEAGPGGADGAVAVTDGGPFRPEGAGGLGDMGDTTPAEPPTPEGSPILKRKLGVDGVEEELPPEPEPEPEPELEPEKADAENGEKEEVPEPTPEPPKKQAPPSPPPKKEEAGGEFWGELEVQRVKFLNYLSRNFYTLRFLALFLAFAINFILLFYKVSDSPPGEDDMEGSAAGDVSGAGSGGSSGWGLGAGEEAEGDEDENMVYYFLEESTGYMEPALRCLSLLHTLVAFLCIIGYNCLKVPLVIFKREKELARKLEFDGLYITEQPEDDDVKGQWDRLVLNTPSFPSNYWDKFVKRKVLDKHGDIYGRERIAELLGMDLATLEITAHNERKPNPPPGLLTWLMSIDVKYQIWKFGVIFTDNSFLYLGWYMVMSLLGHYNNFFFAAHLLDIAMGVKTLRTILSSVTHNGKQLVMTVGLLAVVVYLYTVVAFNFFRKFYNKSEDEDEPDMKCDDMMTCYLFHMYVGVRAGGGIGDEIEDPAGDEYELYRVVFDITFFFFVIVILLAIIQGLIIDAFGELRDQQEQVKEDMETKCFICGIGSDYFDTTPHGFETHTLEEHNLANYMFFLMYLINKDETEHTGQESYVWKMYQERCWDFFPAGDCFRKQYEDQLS
Structure (SMILES),Activity (Rattus norvegicus [1]),EC50 (Ryanodine receptor 1) [µM],IC50 (Ryanodine receptor 1) [µM],Activity (Rattus norvegicus [2])
O=C1NCCc2cc(Br)c(O)c(c2)Oc2ccc(cc2Br)CCNC(=O)/C(=N\O)Cc2cc(Br)c(O)c(c2)Oc2c(Br)cc(cc2Br)C/C1=N/O,Active,–,–,Active
O=C1CCc2ccc(c(Br)c2)Oc2cc(cc(Br)c2O)CCN1,–,11,–,–
O=C1CCNC(=O)CCc2ccc(c(Br)c2)Oc2cc(cc(Br)c2O)CCN1,–,–,6,–

# More lines, main results first:
Activity (Rattus norvegicus [1]),EC50 (Ryanodine receptor 1) [µM],IC50 (Ryanodine receptor 1) [µM],Structure (SMILES),Activity (Rattus norvegicus [2])
Active,–,–,CCCCNC(=O)/C(Cc1cc(Br)c(Oc2cc(C/C(=N\O)C(=O)NCCCC)cc(Br)c2O)c(Br)c1)=N/O,Active
inactive,–,–,O=C(NCCc1cc(Br)c(Oc2cc(NC(=O)c3ccccc3)ccc2O)c(Br)c1)c1ccccc1,–
